Entries after “also recorded” stand apart in the source; their conditions may differ. No end group written: not given here.

For series [1], the system named is right sciatic nerve of rats. The experiment in a line: Sciatic nerve assay (in vivo sciatic nerve injury model). The arrangement: species or system rat. Particulars: Example 2, Table 1, FIG. 1, FIG. 2, comparison with carbamylated EPO. As for the experimental part: The tissue protective peptides were tested for any tissue protective activity using a Sciatic Nerve Assay. Sprague-Dawley rats (250-300 grams) (six per group, including control) were anesthetized using isoflurane (Baxter NPC 10019-773-60) and a Table Top Laboratory Anesthesia System (flowmeter set to 2-3 liters/minute @55 psi) for at least 3 minutes. The rat was then placed on a homeothermic blanket to ensure that the core temperature of the rat was maintained at 35-37° C. during the operation. Core temperature was monitored via a rectal probe. The right sciatic nerve of the anesthetized rat was exposed at mid thigh through a quadriceps muscle dissection; a 2 cm incision with a 15 blade scalpel was made through the skin parallel and over the quadriceps muscle and the quadriceps muscle was cut to expose the sciatic nerve using a pair of dissecting scissors. The sciatic nerve was then freed from the surrounding membranes. A 2-0 braided silk thread (Ethicon, 685-G) was passed under the nerve and the ends of the suture passed through a guide which was maintained perpendicular to the nerve. The end of the suture was then tied to a non-elastic cord which was then draped around the pulley system (a NYL pulley bearing MTD ¼″ B (PO Number 04174-01) with stabilizer) and a 100 gram weight attached to the non-elastic cord was slowly released. The weight was allowed to hang for 1 minute before the silk suture was cut to release the weight.
A 289 pmol/kg dose of carbamylated erythropoietin, a 289 pmol/kg dose of one peptide from the series A-J (see Table 1), or PBS was then injected into the caudal vein using a ½ cc insulin syringe.
The muscle and surgical incision were then closed and 5 ml of Lactated Ringers solution was injected subcutaneously into the rat. The core temperature of the rat was maintained at 35-37° C. using a heat blanket during recovery.
Over the next four days the rear toe splaying of the rats was determined by placing the rat in an acrylic tube with a diameter of 30 cm on the scanning surface of a digital scanner. […] Three acceptable scans of each rat were taken. From the scans, the Toe Spread (the distance between the ball of the first toe and the ball of the fifth toe) and the Intermediate Toe Spread (the distance between the ball of the second toe and the ball of the fourth toe) were measured. The static sciatic index was then computed in accordance with S. Erbayraktar et al., 2003, Proc Natl Acad Sci USA 100, 6741-6746 (hereby incorporated by reference in its entirety) and statistical analysis performed.

Series [2] relates to experimental autoimmune encephalomyelitis in mice. The series is described as follows: Murine EAE model. It counts as in vivo, mouse. As to conditions: C57BL/6 mice; 4.4 μg/kg daily starting day 4 after immunization; p<0.01; FIG. 13. The procedure: Experimental autoimmune encephalomyelitis ([…]) was induced in C57BL/6 female mice (6-8 weeks of age) according to Savino et al., 2006, J Neuroimmunol 172:27-37, hereby incorporated by reference in its entirety. EAE was induced by subcutaneous immunization in the flanks with a total of 200 μg of MOG35-55 (Multiple Peptide Systems, San Diego, Calif., USA) in incomplete Freund's adjuvant (Sigma. St. Louis, Mo., USA) supplemented with 8 mg/ml of Mycobacterium tuberculosis (strain H37RA; Difco, Detroit, Mich., USA). Animals were housed in specific pathogen-free conditions, allowing access to food and water ad libitum. Mice received 500 ng of pertussin toxin (Sigma) i.v. at the time of immunization and 48 h later. Weight and clinical score were recorded daily (0=healthy, 1=flaccid tail, 2=ataxia, and/or hind-limbs paresis, or slow righting reflex, […] 3=paralysis of hind limb and/or paresis of forelimbs, 4=paraparesis of fore limb, 5=moribund or death). Food pellets and the drinking water were placed on Petri plates on the floor of the cage to enable sick mice to eat and drink. Peptide E (SEQ ID NO:31) was administered daily subcutaneously at a dose of 4.4 micrograms/kg-bw, starting on day 4 after immunization.

Series [3] in a line: In vivo assessment of erythropoietic activity and neutralizing antibodies. The arrangement: species or system rat. As to conditions: rats, 0.8 μg/kg s.c. 3 days/week over 130 days, FIG. 4; for increase in hemoglobin levels (hematocrit): EPO at equimolar dosage. As for the experimental part:
To evaluate the erythropoietic activity of tissue protective peptide F (SEQ ID NO:33) or peptide G (SEQ ID NO:40, as discussed supra a peptide constructed of the presenting residues of Helix B), the peptides were administered 0.8 μg/kg subcutaneously three time per week to male Sprague Dawley rats. The dosage schedule corresponded to the equivalent dose (on a molar basis) of EPO previously determined to be elicit maximum erythropoiesis. Hemoglobin concentration was determined periodically by use of an automated analyzer (Keska Corporation).

A further series concerns mouse P19 cells. The series is described as follows: P19 cell apoptosis upon withdrawal of serum. Particulars: times more potent than EPO, on a weight basis; FIG. 6. It counts as cell-based. The procedure: Alternatively, tissue protection afforded by peptides can be determined using an assay employing mouse P19 cells, which are neuronal-like and die via apoptosis upon withdrawal of serum. Tissue protection of peptide D (SEQ ID NO:30) was compared to that of EPO using P19 clone P19S1801A1 as previously published (Siren et al., 2001, PNAS 98:4044, hereby incorporated by reference in its entirety). Cells were maintained undifferentiated in DMEM supplemented with 2 mM Lglutamine; 100 units/ml penicillin G; […] streptomycin sulfate (GIBCO); 10% (vol/vol) FBS (HyClone), containing 1.2 g/liter NaHCO3 and 10 mM Hepes buffer, hereafter referred to as complete medium. Serum-free medium contained the same components as above with the deletion of serum and the addition of 5 mg/ml of insulin; […] of transferrin; 20 nM progesterone; […] putrescine; 30 nM Na2SeO3 (from Sigma). For the experiments, 50% confluent cells were pretreated overnight with EPO or vehicle, dissociated with trypsin, washed in serum-free medium, and plated in 25-cm^2 tissue culture flasks at a final density of 10^4 cells/cm^2 in serum-free medium alone or with added EPO. Cell viability and was determined by trypan blue exclusion and a hemacytometer.

“APPRLICDSRVLERYLLEAKEAE (Peptide A - consists of the N-terminal portion of Helix A corresponding to EPO amino acids 1-23) [EPO fragment, amino acids 1-23]”: the “tissue protective activity in the sciatic nerve injury model (in words)” value (“tissue protective activity” below) in series [1] is reported as “is tissue protective”.
Same read-out and setting: as for “CSLNENIQEQLERALNSS (Peptide I - A chimera peptide linking the helix B exterior-presenting amino acids to the beta pleated sheet found within the AB loop of the EPO) [chimera: Peptide G + β-pleated sheet (33-39)]”, the entry is “is tissue protective”.
For “GCAEHCSLNENITVPDTKVN (Peptide E - a portion of the A-B loop consisting of a small cysteine loop and a Beta-pleated sheet corresponding to EPO amino acids 28-47) [EPO fragment, amino acids 28-47]”, the “clinical score / neurological function in EAE” value in series [2] was “significantly reduced both the time course and severity; also recorded: significantly improved neurological function”. The “tissue protective activity” value in series [1] is recorded as “is tissue protective”; in series [1] (listed as SEQ ID NO:31) it was “exhibit tissue protective properties”.
Consider “NITTGCAEHCSLNE (Peptide B - consists of EPO amino acids 24-37) [EPO fragment, amino acids 24-37]”, for which, in series [3], the “increase in hemoglobin levels (hematocrit)” value was “Neither Peptide B nor Peptide C showed any increase in hematocrit”. Also, in series [1], the “tissue protective activity” value is “is not tissue protective”.
On to “NITVPDTKVNFYAWKRMEVG (Peptide C - loop AB and N-terminal portion of helix B corresponding to EPO amino acids 38-57) [EPO fragment, amino acids 38-57]”, for which the “increase in hemoglobin levels (hematocrit)” value in series [3] was “Neither Peptide B nor Peptide C showed any increase in hematocrit”. The “potency relative to EPO in preventing apoptosis of p19 cells” value in the series with mouse P19 cells is given as “at least 10”. In series [1], the “tissue protective activity” value is “exhibit tissue protective properties”.
Turning to QEQLERALNSS [Peptide G, QEQLERALNSS], the “neutralizing antibody response against EPO” value in series [3] is given as “no neutralizing antibody response was observed; also recorded: neither peptide elicits an antibody response”.
Consider “QEQLERALNSSLRRYINMLTRTR (Peptide J - A chimera peptide of Peptide G linked to pancreatic polypeptide helix)”, for which the “tissue protective activity” value in series [1] was “potent tissue protective activity”.
On to “RYLLEAKEAENITTGC [Peptide F, RYLLEAKEAENITTGC]”, for which the “neutralizing antibody response against EPO” value in series [3] is listed as “no neutralizing antibody response was observed; also recorded: neither peptide elicits an antibody response”.

The values are drawn from patent US10100096B2, “Tissue protective peptides and uses thereof” (Araim Pharmaceuticals, Inc., priority 2005, dated 2018).
